The target in this test is 5-hydroxytryptamine receptor 1D (Bos taurus). The test can be described thus: Binding affinity against 5-hydroxytryptamine 1D receptor in calf caudate homogenates.

SMILES strings stand for the structures.

What is called Ki is the equilibrium dissociation constant of an inhibitor or competing ligand from its target. High values mean a looser hold on the target, low ones a stronger hold on the target. With `CN(C)CCc1c(C(=O)NCc2ccccc2)[nH]c2ccc(CCN3C(=O)CNC3=O)cc12`, the Ki is 1320 nM.
The figure for `CN(C)CCc1c(C(=O)NCc2ccccc2)[nH]c2ccc(CCN3C(=O)NC(C)(C)C3=O)cc12` is 3800 nM.

Source of the values: BindingDB's records for doi:10.1021/jm9706325 (Monash University (Parkville Campus), 1999).
